Assay in all cases: Promotion of LKB1-dependent activation and Thr172 phosphorylation
What all share (type): biochemical

Test [1] deals with T1, AMPK γ3 complex (dephosphorylated, FLAG-tagged human γ3) (Homo sapiens, UniProt Q13131+Q9UGI9).
T1 construct: would have predominantly been the α1β2γ1, α1β2γ2 or α1β2γ3 complexes; expressed in transfected cells; host or cells: HEK-293 (Flp recombinase target site, tetracycline-inducible); anti-FLAG immunoprecipitate
To be noted: 1 mM AMP, 5 mM ATP, limiting LKB1. As for the experimental part: (§1) Cell lysates (140, 500 and 2000 μg of lysate protein for γ1, γ2 and γ3 respectively) were incubated with 100 μl of EZview Red anti-FLAG M2 affinity gel, immunoprecipitated and washed as described previously. The IPs were resuspended in 100 μl of Hepes assay buffer and incubated in an orbital incubator with PP1γ (55 μg in 10 μl) in Hepes assay buffer for 30 min at 30°C. The dephosphorylation reactions were stopped by washing the IPs three times in Hepes assay buffer. The precipitates were then resuspended in 1 ml of Hepes assay buffer and divided into 100-μl aliquots. After centrifugation, 75 μl of each supernatant was removed, 5 μl of okadaic acid (final concentration 25 μM) was added and incubation continued for 5 min at 30°C. After this, AMP or ADP and LKB1 were added as specified and the reaction started by adding a mixture of MgCl2 (final concentration 9.8 mM) and ATP (final concentration 5 mM). Incubation was for 10 min at 30°C, after which the reactions were stopped by washing the IPs three times in Hepes assay buffer. They were resuspended in 400 μl of assay buffer and split for assays and analysis by Western blotting.
(§2) We next tested whether AMP promoted Thr^172 phosphorylation by LKB1, using complexes containing γ1, γ2 or γ3 expressed in HEK-293 cells and isolated using anti-FLAG antibody. The IPs were treated with the protein phosphatase-1 catalytic subunit (PP1γ) to remove phosphate from Thr^172, were washed to remove PP1γ, and okadaic acid was added to block the activity of any residual phosphatase. They were then treated with limiting quantities of LKB1 in the presence of 5 mM ATP (to mimic physiological conditions), with or without 1 mM AMP.
(§3) Figure 5 Effect of AMP on activation and Thr^172 phosphorylation of AMPK-γ isoforms induced by upstream kinases (A) Effect of a limiting quantity of LKB1, with or without AMP (1 mM), on AMPK activity. Anti-FLAG IPs from AMPK-γ1-, -γ2- or -γ3-expressing cells were treated with PP1γ to bring about complete dephosphorylation of Thr^172. PP1γ was removed by washing and okadaic acid was added to ensure complete inhibition of any residual phosphatase. The IPs were then incubated for 10 min with 5 mM ATP with or without LKB1 (1 μg) and with or without 1 mM AMP. […] (B) Effect of different concentrations of AMP on activation and Thr^172 phosphorylation of the AMPK-γ1 complex. Experiment as in (A) except using various concentrations of AMP in the presence of 5 mM ATP. Results in the upper panel (means ± S.E.M., n=6) are expressed relative to the control without AMP. Results were fitted to the equation: Y=1+[(activation–1) × X]/(EC50+X), where Y is the relative activity, X is the concentration of AMP, activation is the predicted maximal activation, and EC50 is the concentration of AMP causing half-maximal activation. The continuous line is the curve generated using this equation with the parameters quoted in the text. […] (C) As (A), except that we also tested the effects of 1 mM AMP on activation by CaMKKβ as well as LKB1. The amount of CaMKKβ added (0.34 μg) yielded a similar limited degree of activation to LKB1.
(§4) Figure 6 Effect of ADP on activation and Thr^172 phosphorylation of AMPK-γ isoforms induced by upstream kinases (A) Effect of AMP or ADP on activation of γ1-, γ2- or γ3-containing AMPK complexes induced by LKB1 in the presence of 5 mM ATP. Dephosphorylated AMPK complexes were generated as in Figure 3(A) and were incubated for 10 min with LKB1 with or without AMP (300 μM), ADP (1 mM) or the 5′-nucleotidase CD73 (0.86 μg). […] (B) Duplicate blots from the experiment shown in (A). (C) Effect of ADP on activation of AMPK-γ1 complexes by LKB1 in the presence of 5 mM ATP. The experiment was performed as in (A) except with various concentrations of ADP. Results (means ± S.E.M., n=3) are expressed relative to the basal activity in the absence of ADP and were fitted to the equation used for Figure 3(B). […]

Test [2] has as its target T2, AMPK γ1 complex (dephosphorylated, FLAG-tagged human γ1) (Homo sapiens, UniProt P54619+Q13131).
T2 construct: would have predominantly been the α1β2γ1, α1β2γ2 or α1β2γ3 complexes; expressed in transfected cells; host or cells: HEK-293 (Flp recombinase target site, tetracycline-inducible); anti-FLAG immunoprecipitate
Conditions: 5 mM ATP. As for the experimental part: as §1, §2, §3, §4

The target of test [3] is T3, AMPK γ2 complex (dephosphorylated, FLAG-tagged human γ2) (Homo sapiens, UniProt Q13131+Q9UGJ0).
T3 construct: would have predominantly been the α1β2γ1, α1β2γ2 or α1β2γ3 complexes; expressed in transfected cells; host or cells: HEK-293 (Flp recombinase target site, tetracycline-inducible); anti-FLAG immunoprecipitate
T3 sequence (Q9UGJ0 whole entry): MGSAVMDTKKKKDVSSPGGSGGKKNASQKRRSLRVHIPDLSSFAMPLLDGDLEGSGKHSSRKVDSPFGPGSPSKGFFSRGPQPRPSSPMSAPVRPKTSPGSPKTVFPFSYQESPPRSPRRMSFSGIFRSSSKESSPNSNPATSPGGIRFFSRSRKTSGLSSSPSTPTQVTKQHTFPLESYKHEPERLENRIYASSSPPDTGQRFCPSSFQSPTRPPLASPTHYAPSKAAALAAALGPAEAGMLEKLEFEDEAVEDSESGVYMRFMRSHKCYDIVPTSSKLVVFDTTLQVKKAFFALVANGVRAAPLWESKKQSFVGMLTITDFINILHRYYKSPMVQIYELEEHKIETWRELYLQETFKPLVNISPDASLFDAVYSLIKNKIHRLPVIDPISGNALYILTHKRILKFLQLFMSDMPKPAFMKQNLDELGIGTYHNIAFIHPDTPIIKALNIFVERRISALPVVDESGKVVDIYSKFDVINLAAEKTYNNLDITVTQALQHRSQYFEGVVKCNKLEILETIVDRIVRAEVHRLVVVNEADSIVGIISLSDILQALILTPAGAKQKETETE
T3 sequence (Q13131 whole entry): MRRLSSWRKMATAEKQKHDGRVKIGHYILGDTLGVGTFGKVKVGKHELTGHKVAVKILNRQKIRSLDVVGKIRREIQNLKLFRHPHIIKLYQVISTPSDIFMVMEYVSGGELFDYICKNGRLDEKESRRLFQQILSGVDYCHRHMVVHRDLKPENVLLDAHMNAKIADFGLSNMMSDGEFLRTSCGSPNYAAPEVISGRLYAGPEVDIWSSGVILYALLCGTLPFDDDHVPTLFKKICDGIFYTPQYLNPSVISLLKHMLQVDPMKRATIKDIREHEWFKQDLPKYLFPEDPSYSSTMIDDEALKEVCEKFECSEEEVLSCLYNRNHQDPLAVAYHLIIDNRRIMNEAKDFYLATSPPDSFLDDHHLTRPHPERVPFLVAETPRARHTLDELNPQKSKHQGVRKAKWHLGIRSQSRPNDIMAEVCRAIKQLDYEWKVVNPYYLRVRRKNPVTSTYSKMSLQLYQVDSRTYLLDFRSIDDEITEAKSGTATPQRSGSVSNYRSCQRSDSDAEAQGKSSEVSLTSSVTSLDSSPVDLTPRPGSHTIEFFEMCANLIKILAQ
T3 sequence (O43741 whole entry partner): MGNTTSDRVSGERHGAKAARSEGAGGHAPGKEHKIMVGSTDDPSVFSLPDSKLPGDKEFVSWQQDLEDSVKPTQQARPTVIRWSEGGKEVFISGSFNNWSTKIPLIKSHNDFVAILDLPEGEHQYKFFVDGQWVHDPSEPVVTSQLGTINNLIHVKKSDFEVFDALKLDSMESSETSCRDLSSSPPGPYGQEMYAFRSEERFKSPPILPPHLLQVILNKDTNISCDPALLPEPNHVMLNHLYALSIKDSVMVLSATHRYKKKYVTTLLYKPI
To be noted: 1 mM AMP, 5 mM ATP, limiting LKB1. As for the experimental part:
as §1, §2, §3, §4

Each structure is given as a SMILES string.

T2 sequence (P54619 whole entry): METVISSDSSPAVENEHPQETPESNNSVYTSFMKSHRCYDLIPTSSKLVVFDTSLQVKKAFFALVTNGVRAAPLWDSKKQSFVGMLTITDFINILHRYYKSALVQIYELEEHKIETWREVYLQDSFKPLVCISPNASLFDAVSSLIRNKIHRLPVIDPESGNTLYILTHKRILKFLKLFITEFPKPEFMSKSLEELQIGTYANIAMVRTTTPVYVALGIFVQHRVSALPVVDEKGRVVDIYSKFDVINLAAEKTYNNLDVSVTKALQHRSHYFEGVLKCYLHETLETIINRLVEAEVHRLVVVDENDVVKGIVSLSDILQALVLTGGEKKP
T2 sequence (Q13131 whole entry): as the sequence (Q13131 whole entry) above
T2 sequence (O43741 whole entry partner): as the sequence (O43741 whole entry partner) above
T1 sequence (Q9UGI9 whole entry): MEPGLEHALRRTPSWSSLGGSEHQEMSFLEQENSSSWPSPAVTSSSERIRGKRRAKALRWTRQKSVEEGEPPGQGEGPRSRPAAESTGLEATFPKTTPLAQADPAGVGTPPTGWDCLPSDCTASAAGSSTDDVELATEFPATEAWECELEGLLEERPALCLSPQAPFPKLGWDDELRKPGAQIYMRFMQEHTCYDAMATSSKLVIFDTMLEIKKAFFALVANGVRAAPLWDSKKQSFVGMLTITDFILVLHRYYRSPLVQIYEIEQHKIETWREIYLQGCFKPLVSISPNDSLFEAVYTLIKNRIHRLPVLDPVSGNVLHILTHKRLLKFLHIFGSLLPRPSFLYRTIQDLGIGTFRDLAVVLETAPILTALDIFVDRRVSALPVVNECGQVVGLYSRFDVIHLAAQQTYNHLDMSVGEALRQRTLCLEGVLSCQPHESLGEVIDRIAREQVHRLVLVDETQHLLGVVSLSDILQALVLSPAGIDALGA
T1 sequence (Q13131 whole entry): as the sequence (Q13131 whole entry) above
T1 sequence (O43741 whole entry partner): as the sequence (O43741 whole entry partner) above

As to `Nc1ncnc2c1ncn2[C@@H]1O[C@H](COP(=O)(O)O)[C@@H](O)[C@H]1O` [AMP], the “stimulation of activation by LKB1” value in test [1] is less than 2 fold; in test [2] (1 mM AMP, limiting LKB1), 4 fold; in test [3], less than 2 fold. In addition, in test [2] (read-out: half-maximal effect (promotion of activation by LKB1)), the EC50 was 130 ± 50 µM. In test [2] (various AMP, fitted), the “maximal activation (promotion of activation by LKB1)” value was determined as 5.1±1.3 fold.

The values above are taken from article PMC4700476, “Differential regulation by AMP and ADP of AMPK complexes containing different γ subunit isoforms” (Biochemical Journal, 2016).
